Assay results published in USH1453H, “N-acetyl-D-glucosamine deacetylase and a process for preparing the same” (priority 1993, dated 1995).

Tests used:
[1] = molecular target: N-acetyl-D-glucosamine deacetylase (Vibrio cholerae, UniProt O32445); test: Substrate specificity of the enzyme; assay type: biochemical, Vibrio cholerae non-01 (IFO 15429); conditions: substrate 0.2%, 37° C., pH 7.8, one hour
Mucor sp. = conditions: method using a microorganism belonging to Mucor sp.; cited from earlier work
[2] = Determination of the enzymatic activity (D-glucosamine formed, indole-HCl colorimetry); assay type: biochemical; conditions: 37° C.; for specific activity: pH 7.8
Experimental: An enzyme solution (0.1 ml) is added to 0.3 ml of 100 mM phosphate buffer (pH 7.8) containing 0.1 ml of 1% N-acetyl-D-glucosamine as a substrate, and the resultant mixture is incubated at 37° C. for 30 minutes. The amount of D-glucosamine formed is determined colorimetrically using indole-HCl according to the method of Z. Dische and E. Borenfreund [J. Biol. Chem., 184:517 (1950)]. One unit of the enzyme is defined as the amount of the enzyme which is capable of producing 1 μmol D-glucosaminefrom N-acetyl-D-glucosamine per minute at 37° C.

Optimal pH of the enzyme = assay type: biochemical; conditions: at 37° C.; indole-HCl method at pH 5.6-10.8
Experimental: The optimal pH of the enzyme of the present invention varies widely depending on the origin of the microorganism used to produce the enzyme, but usually in the range of about 4.0-9.0. For example, the optimal pH of the enzyme derived from Vibrio sp. is in the range of 7.8-8.2 as determined colorimetrically according to indole-HCl method at pH 5.6-10.8. The buffer solution used at pH 5.6-6.0 is 100 mM CH3 COOH--CH3 COONa, at pH 6.0-9.0, 100 mM […] -Na2 HPO4 is used, and at pH 9.6-10.8, 200 mM Na2 HPO4 -NaOH is used.

Stable pH of the enzyme = assay type: physicochemical; conditions: not less than 50% of initial activity retained, determined at 37° C. after incubation at 45° C. for 30 minutes
Experimental: The stable pH wherein not less than 50% of the initial activity of the enzyme is retained, as determined at 37° C. after incubation in a given buffer at 45° C. for 30 minutes, varies depending on the origin of the microorganism used to produce the enzyme, but usually ranges from about 3.0 to 9.0. For example, the stable pH of the enzyme derived from Vibrio sp. is in the range of about 6.0-9.0.

Chain of N-acetyl-D-glucosamine deacetylase (O32445 whole entry): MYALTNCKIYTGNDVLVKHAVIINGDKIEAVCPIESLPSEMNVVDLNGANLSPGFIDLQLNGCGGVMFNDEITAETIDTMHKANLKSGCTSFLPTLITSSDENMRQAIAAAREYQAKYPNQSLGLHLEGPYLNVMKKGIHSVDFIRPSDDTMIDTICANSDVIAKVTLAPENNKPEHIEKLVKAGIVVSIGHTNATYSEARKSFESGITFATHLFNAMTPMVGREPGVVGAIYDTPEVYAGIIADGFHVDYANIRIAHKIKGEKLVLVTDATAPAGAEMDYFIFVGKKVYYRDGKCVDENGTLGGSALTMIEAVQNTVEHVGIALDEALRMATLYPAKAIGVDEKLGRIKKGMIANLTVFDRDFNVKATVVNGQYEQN

## CC(=O)N[C@H]1C(O)O[C@H](CO)[C@@H](O)[C@@H]1O (stereo partly drawn) [GlcNAc, N-acetyl-D-glucosamine]
[1]
  Enzymatic Activity: 1.22 Unit/mg
  formation of D-glucosamine: can be observed

## (GlcNAc)5
Mucor sp.
  deacetylated to the extent of: 12-14%

## N-acetyl-D-glucosamine deacetylase
[2]; listed as enzyme
  specific activity: 1.22 unit/mg protein
[2]; listed as purified enzyme
  specific activity: 1.22 U/mg protein
[2]; Table 1, per purification step, pH 7.8, 30 minutes
  Spec. Act.: 1.22 Unit/mg
Optimal pH of the enzyme
  Optimal pH: 7.8-8.2
Stable pH of the enzyme
  Stable pH: 6.0-9.0
